Experimental data published in patent US20120034608A1, “MICRORNA AS A BIOMARKER OF PANCREATIC ISLET BETA-CELL ENGAGEMENT” (Merck Sharp & Dohme Corp., priority 2009, published 2012).

Experiments:
INS-1 832/3 cells = assay: release of miRNAs from INS-1 832/3 cells into culture media (TAQMAN, normalized to U6 RNA); type: cell-based, rat; details: 50 nM GLP-1, after 4 or 8 hours
Experimental: INS1 832/3 cells were treated with 50 nM GLP-1 (7-37) amide (BACHEM) in RPMI 1640 with 10% FBS and 11 mM glucose in 24-well plates for 4, 8, 16, and 24 hours. Cell culture media was collected, 100 μL out of 1 mL media per sample was used for RNA extraction following the protocol for plasma samples (Mitchell et al., Proc. Natl. Acad. Sci. USA 105: 10513-10518). Briefly, RNA isolation was performed using the mirVana PARIS kit following the manufacturer's protocol (Ambion), except that samples were extracted twice with acid phenol-chloroform. The average of about 80 μL of eluate was recovered from each extraction. A fixed volume of 1.67 μL of the RNA eluate was used as input into the reverse transcription reaction. RNA was reverse transcribed using the TAQMAN miRNA Reverse Transcription Kit and miRNA-specific stem-loop primers in 5 μL volume (Applied BioSystems). About 2.25 μL of diluted PCR product (combining 5 μL RT product with 28.9 μL H2O) was added to 2.75 μL of PCR assay reagents to generate a PCR of 5 μL of total volume. The relative miRNA levels were determined by real-time RT-PCR using the ABI PRISM 7900 Sequence Detection System from Applied Biosystems (Foster City, Calif.) through 40 cycles as described in Example 2. TAQMAN reagents were purchased from Applied Biosystems (Foster City, Calif.). […]

INS-1 832/13 cells = assay: glucose dependent insulin secretion (GDIS) assay in INS-1 832/13 cells; type: cell-based, rat; details: 16 mM glucose, two-hour incubation in KRB
Source text: We overexpressed the precursors of miR-132 and miR-212 to evaluate their possible contribution to β-cell function. MicroRNA miR-375 was included as a control as it been reported to have an inhibitory effect on GDIS (Poy et al., Nature 432: 226-230 (2004)). Chemically modified Pre-miR™ miRNA precursor molecules and Anti-miR™ miRNA inhibitors were purchased from Ambion (Foster City, Calif.). miRCURY LNA™ microRNA knockdown oligonucleotides were purchased from Exiqon (Woburn, Mass.). The oligonucleotide molecules were delivered to the cells by the Nucleofector Device (Amaxa, Gaithersburg, Md.). In brief, INS-1 cells were trypsinized, centrifuged, and resuspended in 100 μl Nucleofector solution V. Then 100-500 pmole RNA oligonucleotides were transfected to 3-million cells at the concentration of 1-5 μM with the Amaxa Nucleofector Device. Scramble controls from the vendors were used with the same transfection method. After electroporation, the cells were transferred to regular culture medium and then split into replicates in 96-well plates. Insulin secretion assay or LANCE cAMP assay were performed 48 hours post electroporation.
INS-1 cell glucose dependent insulin secretion (GDIS) assay was performed as follows. The GDIS assay was performed with cells grown to near confluency in 96-well plates. Prior to the assay, cells were washed once with PBS and pre-incubated for two hours in freshly prepared Krebs-Ringer Bicarbonate (KRB) medium without glucose. The medium were then replaced with KRB with 2, 8 or 16 mM glucose or along with 10 nM GLP-1. The cells were incubated for another two hours in a CO2 incubator. The media was then removed at the end of incubation, and assayed for insulin levels by Ultra-sensitive Rat Insulin ELISA kit (ALPCO, Salem, N.H.) or insulin immunoassay by Gyrolab workstation (GYROS AB, Uppsala, Sweden). Intracellular insulin was extracted by acid ethanol method for measuring intracellular insulin content. Total protein was measured by Pierce 660 nm Protein Assay from Pierce Biotechnology, Inc. (Rockford, Ill.).

GLP-1 (7-37) amide
miR-132 in the medium compared to vehicle (INS-1 832/3 cells): remained unchanged
miR-212 in the medium compared to vehicle (INS-1 832/3 cells): remained unchanged
increase of insulin secretion upon treatment with GLP-1 (INS-1 832/13 cells): less than 50%
